Experimental data published in patent US20110039763A1, “TARGETED ANTIMICROBIAL MOIETIES” (C3 JIAN, INC., priority 2009, published 2011).

How the values were obtained:
microorganisms [1] = assay: Peptide activities: targeting/binding, antimicrobial, growth or phenotype altering (Tables 7, 8); type: cell-based; conditions: peptides having multiple activities
Source text: In certain embodiments, peptides described herein can have multiple activities. Thus for example, a peptide can have both binding/targeting activity and antimicrobial activity. Such peptides can be used, e.g., in a chimeric construct, for any or all of these properties. Thus, for example, a peptide designated “B” in Table 8 can be used as a targeting peptide. If it is also designated G or M it can also be used for antimicrobial activity.
Table 8. Peptides Having Multiple Activities. B: Targeting/Binding Activity; M: Antimicrobial Activity; G: GROWTH or Phenotype Altering.

microorganisms [2] = assay: Morphology, biofilm and growth disrupting peptides (Table 5); type: cell-based; parameters: key: A: Peptide aggregates; B: Less hyphal formation; Clumps; Diffuse clumps and small polyps; F: Diffuse growth; H: Thin; I: Growth inhibition; Microcolony formation; Rippled; Small polyps; Thick; W: Halo formation on top, microlonies on bottom
Source text: In certain embodiments peptides that induce alterations in phenotype or other biological activities can also be used as antimicrobial effector moieties.

microorganisms [3] = assay: Targeting peptide binding to target microorganisms (Tables 3, 10, 12); conditions: microorganism(s) the targeting peptide binds; binding in aqueous buffers varied with peptide solubility, preferably 1x PBS

Row | Substance | Activities (microorganisms [1]) | Organism, effect (microorganisms [2]; MRSA) | Organism, effect (microorganisms [2]; S. pneumoniae) | Target(s) (microorganisms [3]) | other results
1 | PF-440: peptide having multiple activities (MFIISPDLFNIAVILYILFFIHDILLLILS; Peptide with targeting and/or antimicrobial activity) | G B | MRSA (C) | S. pneumoniae (R) | – | Organism, effect (microorganisms [2]; E. coli): E. coli (R); Organism, effect (microorganisms [2]; E. faecalis): E. faecalis (C); Organism, effect (microorganisms [2]; S. epidermidis): S. epidermidis (C)
2 | PF-356: peptide having multiple activities (chain 1 VSIKIGAIVIGMIGLMELLTE; chain 2 VSIKIGAIVIGMIGLMELLTE; Peptide with targeting and/or antimicrobial activity) | G B | – | – | – | Organism, effect: C. jejuni (microorganisms [2]; C. jejuni): C. jejuni (D); Organism, effect: E. faecalis (microorganisms [2]; E. faecalis): E. faecalis (R); Organism, effect: MRSA (microorganisms [2]; MRSA): MRSA (C); Organism, effect: P. aeruginosa (microorganisms [2]; P. aeruginosa): P. aeruginosa (A); Organism, effect: S. epidermidis (microorganisms [2]; S. epidermidis): S. epidermidis (S); Organism, effect: S. pneumoniae (microorganisms [2]; S. pneumoniae): S. pneumoniae (R)
3 | MGIIAGIIKVIKSLIEQFTGK [PF-007] | G B | – | – | – | Organism, effect: E. coli (microorganisms [2]; E. coli): E. coli (A); Organism, effect: E. faecalis (microorganisms [2]; E. faecalis): E. faecalis (A); Organism, effect: M. luteus (microorganisms [2]; M. luteus): M. luteus (A); Organism, effect: MRSA (microorganisms [2]; MRSA): MRSA (R); Organism, effect: S. epidermidis (microorganisms [2]; S. epidermidis): S. epidermidis (A)
4 | PF-586: peptide having multiple activities (chain 1 FFNQANYFFKEF; chain 2 FFNQANYFFKEF; Peptide with targeting and/or antimicrobial activity) | G B | MRSA (D) | S. pneumoniae (D) | – | Organism, effect (microorganisms [2]; C. jejuni): C. jejuni (D); Organism, effect (microorganisms [2]; E. coli): E. coli (C); Organism, effect (microorganisms [2]; E. faecalis): E. faecalis (D); Organism, effect (microorganisms [2]; S. epidermidis): S. epidermidis (C)
5 | PF-596: peptide having multiple activities (chain 1 SKMWDKILTILILILELIRELIKL; chain 2 SKMWDKILTILILILELIRELIKL; Peptide with targeting and/or antimicrobial activity) | G B | MRSA (D) | S. pneumoniae (D) | – | Organism, effect (microorganisms [2]; C. jejuni): C. jejuni (D); Organism, effect (microorganisms [2]; E. coli): E. coli (C); Organism, effect (microorganisms [2]; E. faecalis): E. faecalis (D); Organism, effect (microorganisms [2]; S. epidermidis): S. epidermidis (D)
6 | PF-770: peptide having multiple activities (GVGIGFIMMGVVGYAVKLVHIPIRYLIV; Peptide with targeting and/or antimicrobial activity) | G B | MRSA (D) | S. pneumoniae (C) | – | Organism, effect (microorganisms [2]; E. coli): E. coli (C); Organism, effect (microorganisms [2]; M. luteus): M. luteus (C); Organism, effect (microorganisms [2]; P. mirabilis): P. mirabilis (C); Organism, effect (microorganisms [2]; S. epidermidis): S. epidermidis (D); Organism, effect (microorganisms [2]; S. mutans): S. mutans (D)
7 | PF-386: peptide having multiple activities (chain 1 FTLTLITTIVAILNYKDKKK; chain 2 FTLTLITTIVAILNYKDKKK; Peptide with targeting and/or antimicrobial activity) | G B | – | – | – | Organism, effect: E. coli (microorganisms [2]; E. coli): E. coli (C); Organism, effect: E. faecalis (microorganisms [2]; E. faecalis): E. faecalis (C); Organism, effect: MRSA (microorganisms [2]; MRSA): MRSA (C); Organism, effect: S. epidermidis (microorganisms [2]; S. epidermidis): S. epidermidis (C)
8 | PF-482: peptide having multiple activities (LVGYVRTSGTVRSYKIN; Peptide with targeting and/or antimicrobial activity) | G B | – | S. pneumoniae (S) | – | –
9 | PF-465: peptide having multiple activities (KPVGKALEEIADGKIEPVVPKEYLG; Peptide with targeting and/or antimicrobial activity) | G B | – | S. pneumoniae (H) | – | –
10 | PF-610: peptide having multiple activities (chain 1 VFLKLKTSKIDLASIIFYP; chain 2 VFLKLKTSKIDLASIIFYP; Peptide with targeting and/or antimicrobial activity) | G B | MRSA (D) | S. pneumoniae (D) | – | Organism, effect (microorganisms [2]; C. jejuni): C. jejuni (D); Organism, effect (microorganisms [2]; E. coli): E. coli (C); Organism, effect (microorganisms [2]; E. faecalis): E. faecalis (D); Organism, effect (microorganisms [2]; S. epidermidis): S. epidermidis (C)
11 | PF-704 (APAARAAL; Peptide with targeting and/or antimicrobial activity) | – | – | S. pneumoniae (C) | Mycobacteria spp | –
12 | PF-682 (RRGKSEQGLSRR; Peptide with targeting and/or antimicrobial activity) | – | – | S. pneumoniae (A) | Mycobacteria spp | –
13 | PF-690 (MIPLAGDPVSSHRTVEFGVLGTYLVSGGSL; Peptide with targeting and/or antimicrobial activity) | – | MRSA (R) | S. pneumoniae (M) | Mycobacteria spp | Organism, effect (microorganisms [2]; E. faecalis): E. faecalis (R); Organism, effect (microorganisms [2]; S. epidermidis): S. epidermidis (R)
14 | PF-651 (chain 1 PRWPTGAGRHR; chain 2 PRWPTGAGRHR; Peptide with targeting and/or antimicrobial activity) | – | – | S. pneumoniae (H) | Mycobacteria spp | –
15 | PF-661 (chain 1 PDEDIRRRAILPPAGPCRPMSPE; chain 2 PDEDIRRRAILPPAGPCRPMSPE; Peptide with targeting and/or antimicrobial activity) | – | MRSA (R) | – | Mycobacteria spp | –
16 | PF-680 (ADPHPTTGI; Peptide with targeting and/or antimicrobial activity) | – | MRSA (R) | – | Mycobacteria spp | –
17 | PF-685 (PTLWLACL; Peptide with targeting and/or antimicrobial activity) | – | MRSA (M) | S. pneumoniae (M) | Mycobacteria spp | Organism, effect (microorganisms [2]; C. jeikeium): C. jeikeium (R); Organism, effect (microorganisms [2]; E. faecalis): E. faecalis (R); Organism, effect (microorganisms [2]; S. epidermidis): S. epidermidis (M)
18 | PF-646 (chain 1 APASPGRRPG; chain 2 APASPGRRPG; Peptide with targeting and/or antimicrobial activity) | – | – | S. pneumoniae (H) | Mycobacteria spp | Organism, effect (microorganisms [2]; C. albicans): C. albicans (B)
19 | PF-694 (DLIRPLYSMSAPSVA; Peptide with targeting and/or antimicrobial activity) | – | MRSA (R) | S. pneumoniae (A) | Mycobacteria spp | –
20 | PF-645 (chain 1 SNSVQQG; chain 2 SNSVQQG; Peptide with targeting and/or antimicrobial activity) | – | – | S. pneumoniae (I) | Mycobacteria spp | Organism, effect (microorganisms [2]; C. albicans): C. albicans (B)
21 | PF-658 (chain 1 PTTPPPTTPPEIPTGGTVIST; chain 2 PTTPPPTTPPEIPTGGTVIST; Peptide with targeting and/or antimicrobial activity) | – | MRSA (R) | S. pneumoniae (H) | Mycobacteria spp | –
22 | PF-693 (PDPAR; Peptide with targeting and/or antimicrobial activity) | – | – | S. pneumoniae (A) | Mycobacteria spp | –
23 | PF-683 (LWPVA; Peptide with targeting and/or antimicrobial activity) | – | MRSA (R) | S. pneumoniae (H) | Mycobacteria spp | Organism, effect (microorganisms [2]; S. epidermidis): S. epidermidis (R)
24 | PF-656 (chain 1 RGMFVPFHDVDCVQ; chain 2 RGMFVPFHDVDCVQ; Peptide with targeting and/or antimicrobial activity) | – | MRSA (R) | – | Mycobacteria spp | –
25 | PF-691 (HRTVEFGVLGTYLVSGGSL; Peptide with targeting and/or antimicrobial activity) | – | – | S. pneumoniae (R) | Mycobacteria spp | –
26 | PF-647 (chain 1 GTFLGQKCAAATAS; chain 2 GTFLGQKCAAATAS; Peptide with targeting and/or antimicrobial activity) | – | – | S. pneumoniae (R) | Mycobacteria spp | Organism, effect (microorganisms [2]; C. albicans): C. albicans (B)
27 | PF-666 (chain 1 PNRRSRPR; chain 2 PNRRSRPR; Peptide with targeting and/or antimicrobial activity) | – | – | S. pneumoniae (A) | Mycobacteria spp | –
28 | PF-702 (LSGRLAGRR; Peptide with targeting and/or antimicrobial activity) | – | – | S. pneumoniae (H) | Mycobacteria spp | –
29 | PF-653 (chain 1 QSVHPLPAETPVADVI; chain 2 QSVHPLPAETPVADVI; Peptide with targeting and/or antimicrobial activity) | – | – | S. pneumoniae (H) | Mycobacteria spp | –
